Test results as given in ChEMBL document CHEMBL1909294, “Translating clinical findings into knowledge in drug safety evaluation--drug induced liver injury prediction system (DILIps)” (PLoS Comput Biol, 2011).
Where a SMILES comes first, the peptide text is derived from it. Bridges are numbered along the chain shown (N, C = ends). [ ]: non-standard residue; d: D form. The star is where a group is joined. Ileψ(thiazoline)Cys = CC[C@H](C)[C@H](N)C1=N[C@H](C(=O)*)CS1; dOrn = NCCC[C@@H](N)C(=O)O

Legend:
[1] = tested on: Hepatotoxicity;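 on HepSE Combined Scores: combined hepatic side effect score as listed in the training data of the Drug Induced Liver Injury Prediction System (DILIps)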;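 on HepSE elevated liver function tests: hepatic side effect score for raised liver function tests, as recorded in the DILIps training set used for predicting drug-induced liver injury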;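 on HepSE hepatic necrosis: score of hepatic side effects for hepatic necrosis, drawn from the training data of DILIps, a prediction system for drug-induced liver injury; call rule not given here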;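 on HepSE hepatomegaly: hepatic side effect score for hepatomegaly, taken from the training set of the DILIps drug-induced liver injury prediction system; call rule not given here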;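 on HepSE jaundice: Jaundice-related hepatic side-effect score drawn from the training data of the DILIps (drug-induced liver injury prediction system); call rule not given here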;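 on HepSE liver fatty: hepatic side effect score for fatty liver, taken from the DILIps training set for predicting drug-induced liver injury; call rule not given here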
[2] = tested on: Hepatotoxicity; remark: listed apart in the source;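 on HepSE Combined Scores: combined hepatic side effect score as listed in the training data of the Drug Induced Liver Injury Prediction System (DILIps)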;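 on HepSE elevated liver function tests: hepatic side effect score for raised liver function tests, as recorded in the DILIps training set used for predicting drug-induced liver injury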;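 on HepSE hepatic necrosis: score of hepatic side effects for hepatic necrosis, drawn from the training data of DILIps, a prediction system for drug-induced liver injury; call rule not given here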;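 on HepSE hepatomegaly: hepatic side effect score for hepatomegaly, taken from the training set of the DILIps drug-induced liver injury prediction system; call rule not given here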;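 on HepSE jaundice: Jaundice-related hepatic side-effect score drawn from the training data of the DILIps (drug-induced liver injury prediction system); call rule not given here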;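 on HepSE liver fatty: hepatic side effect score for fatty liver, taken from the DILIps training set for predicting drug-induced liver injury; call rule not given here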
[3] = tested on: Hepatotoxicity; remark: listed apart in the source;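 on HepSE Combined Scores: combined hepatic side effect score as listed in the training data of the Drug Induced Liver Injury Prediction System (DILIps)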;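 on HepSE elevated liver function tests: hepatic side effect score for raised liver function tests, as recorded in the DILIps training set used for predicting drug-induced liver injury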;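 on HepSE hepatic necrosis: score of hepatic side effects for hepatic necrosis, drawn from the training data of DILIps, a prediction system for drug-induced liver injury; call rule not given here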;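 on HepSE hepatomegaly: hepatic side effect score for hepatomegaly, taken from the training set of the DILIps drug-induced liver injury prediction system; call rule not given here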;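 on HepSE jaundice: Jaundice-related hepatic side-effect score drawn from the training data of the DILIps (drug-induced liver injury prediction system); call rule not given here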;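 on HepSE liver fatty: hepatic side effect score for fatty liver, taken from the DILIps training set for predicting drug-induced liver injury; call rule not given here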
[4] = tested on: Hepatotoxicity; remark: listed apart in the source;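 on HepSE elevated liver function tests: hepatic side effect score for raised liver function tests, as recorded in the DILIps training set used for predicting drug-induced liver injury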;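 on HepSE hepatic necrosis: score of hepatic side effects for hepatic necrosis, drawn from the training data of DILIps, a prediction system for drug-induced liver injury; call rule not given here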;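 on HepSE hepatomegaly: hepatic side effect score for hepatomegaly, taken from the training set of the DILIps drug-induced liver injury prediction system; call rule not given here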;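 on HepSE jaundice: Jaundice-related hepatic side-effect score drawn from the training data of the DILIps (drug-induced liver injury prediction system); call rule not given here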;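 on HepSE liver fatty: hepatic side effect score for fatty liver, taken from the DILIps training set for predicting drug-induced liver injury; call rule not given here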
[5] = tested on: Hepatotoxicity; remark: listed apart in the source
[6] = tested on: Hepatotoxicity; remark: listed apart in the source
[7] = tested on: Hepatotoxicity; remark: listed apart in the source
[8] = tested on: Hepatotoxicity; remark: listed apart in the source
[9] = tested on: Hepatotoxicity; remark: listed apart in the source
[10] = tested on: Hepatotoxicity; remark: listed apart in the source
[11] = tested on: Hepatotoxicity; remark: listed apart in the source
[12] = tested on: Hepatotoxicity; remark: listed apart in the source
[13] = tested on: Hepatotoxicity; remark: listed apart in the source
[14] = tested on: Hepatotoxicity; remark: listed apart in the source

| SMILES | HepSE_jaundice [1] | HepSE_liver fatty [2] | HepSE_cholelithiasis [3] | HepSE_hepatomegaly [4] | HepSE_elevated liver function tests [5] | HepSE_hepatic necrosis [6] | HepSE_Combined Scores [7] | HepSE_liver function tests abnormal [8] | HepSE_cirrhosis [9] | HepSE_cholecystitis [10] | HepSE_hepatic failure [11] | HepSE_liver disease [12] | HepSE_bilirubinemia [13] | HepSE_hepatitis [14] | also measured |
| --- | --- | --- | --- | --- | --- | --- | --- | --- | --- | --- | --- | --- | --- | --- | --- |
| C[C@@H](O[C@H]1OCCN(Cc2n[nH]c(=O)[nH]2)[C@H]1c1ccc(F)cc1)c1cc(C(F)(F)F)cc(C(F)(F)F)c1 [APREPITANT] | 0 | 0 | 0 | 0 | 0 | 0 | 0 | 0 | 0 | 0 | 0 | 0 | 0 | 0 | – |
| CC1CNc2c(cccc2S(=O)(=O)N[C@@H](CCCNC(=N)N)C(=O)N2CC[C@@H](C)C[C@@H]2C(=O)O)C1 (stereo partly drawn) [ARGATROBAN] | 0 | 0 | 0 | 0 | 0 | 0 | 0 | 0 | 0 | 0 | 0 | 0 | 0 | 0 | – |
| N=C(N)NCCC[C@H](N)C(=O)O [ARGININE] | 0 | 0 | 0 | 0 | 0 | 0 | 0 | 0 | 0 | 0 | 0 | 0 | 0 | 0 | – |
| O=C1CCc2ccc(OCCCCN3CCN(c4cccc(Cl)c4Cl)CC3)cc2N1 [ARIPIPRAZOLE] | 1 | 0 | 1 | 1 | 0 | 0 | 6 | 0 | 0 | 1 | 0 | 0 | 1 | 1 | – |
| O=[As][As+](=O)[O-] (stereo not drawn) [ARSENIC TRIOXIDE] | 0 | 0 | 0 | 0 | 0 | 0 | 0 | 0 | 0 | 0 | 0 | 0 | 0 | 0 | – |
| CCCNC(C)C(=O)Nc1c(C)csc1C(=O)OC (stereo not drawn) [ARTICAINE] | 0 | 0 | 0 | 0 | 0 | 0 | 0 | 0 | 0 | 0 | 0 | 0 | 0 | 0 | – |
| CC(=O)Oc1ccccc1C(=O)O [ASPIRIN] | 0 | 0 | 0 | 0 | 0 | 0 | 0 | 0 | 0 | 0 | 0 | 0 | 0 | 0 | – |
| COC(=O)N[C@H](C(=O)N[C@@H](Cc1ccccc1)[C@@H](O)CN(Cc1ccc(-c2ccccn2)cc1)NC(=O)[C@@H](NC(=O)OC)C(C)(C)C)C(C)(C)C [ATAZANAVIR] | 1 | 1 | 1 | 1 | 0 | 0 | 7 | 0 | 0 | 1 | 0 | 0 | 1 | 1 | – |
| CNCC[C@@H](Oc1ccccc1C)c1ccccc1 [ATOMOXETINE] | 0 | 0 | 0 | 0 | 0 | 0 | 1 | 1 | 0 | 0 | 0 | 0 | 0 | 0 | – |
| O=C1C(O)=C([C@H]2CC[C@H](c3ccc(Cl)cc3)CC2)C(=O)c2ccccc21 [ATOVAQUONE] | 0 | 0 | 0 | 0 | 0 | 0 | 2 | 0 | 0 | 0 | 1 | 0 | 0 | 1 | – |
| Cn1cnc([N+](=O)[O-])c1Sc1ncnc2nc[nH]c12 [AZATHIOPRINE] | – | – | – | – | – | – | – | – | – | – | – | – | – | – | HepSE_jaundice ([1]; Liver): 0; HepSE_liver fatty ([2]; Liver): 0; HepSE_cholelithiasis ([3]; Liver): 0; HepSE_hepatomegaly ([4]; Liver): 0; HepSE_elevated liver function tests ([5]; Liver): 0; HepSE_hepatic necrosis ([6]; Liver): 0; HepSE_Combined Scores ([7]; Liver): 0; HepSE_liver function tests abnormal ([8]; Liver): 0; HepSE_cirrhosis ([9]; Liver): 0; HepSE_cholecystitis ([10]; Liver): 0; HepSE_hepatic failure ([11]; Liver): 0; HepSE_liver disease ([12]; Liver): 0; HepSE_bilirubinemia ([13]; Liver): 0; HepSE_hepatitis ([14]; Liver): 0 |
| O=C(O)CCCCCCCC(=O)O [AZELAIC ACID] | 0 | 0 | 0 | 0 | 0 | 0 | 0 | 0 | 0 | 0 | 0 | 0 | 0 | 0 | – |
| CN1CCCC(n2nc(Cc3ccc(Cl)cc3)c3ccccc3c2=O)CC1 (stereo not drawn) [AZELASTINE] | 0 | 0 | 0 | 0 | 0 | 0 | 0 | 0 | 0 | 0 | 0 | 0 | 0 | 0 | – |
| CC[C@H]1OC(=O)[C@H](C)[C@@H](O[C@H]2C[C@@](C)(OC)[C@@H](O)[C@H](C)O2)[C@H](C)[C@@H](O[C@@H]2O[C@H](C)C[C@H](N(C)C)[C@H]2O)[C@](C)(O)C[C@@H](C)CN(C)[C@H](C)[C@@H](O)[C@]1(C)O [AZITHROMYCIN] | 1 | 0 | 0 | 0 | 0 | 1 | 5 | 1 | 0 | 0 | 1 | 0 | 0 | 1 | – |
| C[C@H]1[C@H](NC(=O)/C(=N\OC(C)(C)C(=O)O)c2csc(N)n2)C(=O)N1S(=O)(=O)O [AZTREONAM] | 1 | 0 | 0 | 0 | 0 | 0 | 2 | 0 | 0 | 0 | 0 | 0 | 0 | 1 | – |
| CC[C@H](C)[C@H](N)C1=N[C@H](C(=O)N[C@@H](CC(C)C)C(=O)N[C@H](CCC(=O)O)C(=O)N[C@H](C(=O)N[C@H]2CCCCNC(=O)[C@H](CC(N)=O)NC(=O)[C@@H](CC(=O)O)NC(=O)[C@H](Cc3cnc[nH]3)NC(=O)[C@@H](Cc3ccccc3)NC(=O)[C@H]([C@@H](C)CC)NC(=O)[C@@H](CCCN)NC2=O)[C@@H](C)CC)CS1 [BACITRACIN] ({Ileψ(thiazoline)Cys}-L[dE]IK[dOrn]I[dF]H[dD]N; lactam 4-C) | 0 | 0 | 0 | 0 | 0 | 0 | 0 | 0 | 0 | 0 | 0 | 0 | 0 | 0 | – |
| NCC(CC(=O)O)c1ccc(Cl)cc1 (stereo not drawn) [BACLOFEN] | 0 | 0 | 0 | 0 | 0 | 0 | 0 | 0 | 0 | 0 | 0 | 0 | 0 | 0 | – |
